The text below walks through data of US20260062422A1 (Halda Therapeutics OpCo, Inc., priority 2022, published 2026).

As a reminder, the GI50 is the concentration at which growth is held to half of that of the control. Low values mean greater sensitivity of the cells, high ones lower sensitivity of the cells.

Assay [1] has as its system T-Rex 293 cell line SC3 cells lacking increased expression of androgen receptor protein. Put plainly: Cellular growth inhibition, T-Rex 293 SC3 cells without doxycycline, CellTiter-Glo. As to conditions: T-Rex 293 SC3 cells not exposed to doxycycline, CellTiter-Glo 2.0. In kind it is cell-based. In a few lines:
(§1)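 Luminescence read-out (CellTiter-Glo 2.0) after 72 h compound exposure; GI50 by four-parameter nonlinear regression, baseline set at zero luminescence. SC3 cells, a doxycycline-inducible wild-type AR clone of T-Rex 293, were cultured ±10 ng/mL doxycycline in charcoal-dextran FBS medium.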
On the technique in general: Cellular ATP, detected with luciferase, serves as a proxy for viable cell number.

For another assay, the system named is VCaP cells. Nature of the assay: Cellular growth inhibition assay for VCaP cells, CellTiter-Glo. In kind it is cell-based, human. As to conditions: 72 hours treatment, CellTiter-Glo 2.0. Put shortly:
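GI50 values come from four-parameter curve fits of luminescence data normalized to a zero baseline. Compound, in medium with 0.5% DMSO, was added one day after plating and left for 72 h before CellTiter-Glo 2.0 addition.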

Assay [2] relates to T-Rex 293 cell line SC3 cells having increased expression of androgen receptor protein due to exposure to doxycycline. Put plainly: Cellular growth inhibition, T-Rex 293 SC3 cells with doxycycline (androgen receptor induced), CellTiter-Glo. In kind it is cell-based. As to conditions: T-Rex 293 SC3 cells with 10 ng/mL doxycycline (increased androgen receptor expression). Put shortly: as §1

Another assay concerns T47D cells. Nature of the assay: Cellular growth inhibition assay for T47D cells, CellTiter-Glo. In kind it is cell-based, human. As to conditions: 72 hours treatment, CellTiter-Glo 2.0 cell viability. In a few lines: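 Cells are plated at 3000/well and allowed 24 h before treatment. Test compound in medium containing 0.5% DMSO is then added, with DMSO-only wells as negative control, and plates are incubated 72 h at 37 °C. ATP luminescence (CellTiter-Glo 2.0) is then fitted to four parameters to derive GI50.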

On to `Cc1sc2c(c1C)C(c1ccc(CN3CC[C@@]4(CCCN(c5ncc(C(=O)N[C@H]6C(C)(C)[C@H](Oc7ccc(C#N)c(Cl)c7)C6(C)C)cn5)C4)C3)cc1)=N[C@@H](Cc1ncco1)c1nnc(C)n1-2` [Compound I-144], for which the GI50 was below 500 nM in assay [1] (72 h); below 500 nM in the assay with VCaP cells (Homo sapiens, VCaP, 72 h); below 500 nM in assay [2] (72 h); 500 to 1500 nM in the assay with T47D cells (Homo sapiens, T47D, 72 h).

Regarding `Cc1sc2c(c1C)C(c1ccc(C3CC(C4CCN(c5cnc(C(=O)N[C@H]6C(C)(C)[C@H](Oc7ccc(C#N)c(Cl)c7)C6(C)C)cn5)CC4)C3)cc1)=NC(C)c1nnc(C)n1-2` (stereo partly shown) [Compound I-471], the GI50 is above 3000 nM in assay [1] (72 hours), above 3000 nM with VCaP cells, 500 to 1500 nM in assay [2] (72 hours) and below 500 nM in the assay with T47D cells.

For the compound `Cc1sc2c(c1C)C(c1ccc(N[C@H]3CCCCN(c4ncc(C(=O)N[C@H]5C(C)(C)[C@H](Oc6ccc(C#N)c(Cl)c6)C5(C)C)cn4)C3)cc1)=NC(Cc1ncco1)c1nnc(C)n1-2` (stereo partly shown) [Compound I-655], the GI50 in assay [1] (72 h) was above 3000 nM; in the assay with VCaP cells (Homo sapiens, VCaP, 72 h), 1500 to 3000 nM; in assay [2] (72 h) it was below 500 nM; with T47D cells (Homo sapiens, T47D, 72 h), 500 to 1500 nM.

`Cc1sc2c(c1C)C(c1ccc(CCCOC3CCN(c4ncc(C(=O)N[C@H]5C(C)(C)[C@H](Oc6ccc(C#N)c(Cl)c6)C5(C)C)cn4)CC3)cc1)=C[C@H](Cc1ccncn1)c1nnc(C)n1-2` [Compound I-376]: the GI50 (in assay [1] (72 hours); in the assay on VCaP cells; in assay [2] (72 hours); with T47D cells) was below 500 nM throughout.

For `Cc1sc2c(c1C)C(c1ccc(C[C@H]3C[C@@H](OC4CCN(c5ncc(C(=O)N[C@H]6C(C)(C)[C@H](Oc7ccc(C#N)c(Cl)c7)C6(C)C)cn5)CC4)C3)cc1)=N[C@@H](Cc1ncco1)c1nnc(C)n1-2` [Compound I-427], the GI50 in assay [1] (72 hours) was above 3000 nM; in the assay with VCaP cells, below 500 nM; in assay [2] (72 hours), below 500 nM; in the assay with T47D cells, below 500 nM.

As to `Cc1sc2c(c1C)C(c1ccc(N3CCN(C(=O)c4ncc(C(=O)N[C@H]5C(C)(C)[C@H](Oc6ccc(C#N)c(Cl)c6)C5(C)C)cn4)CC3)cc1)=N[C@@H](Cc1ncco1)c1nnc(C)n1-2` [Compound I-340], the GI50 in assay [1] (72 h) is above 3000 nM; in the assay on VCaP cells (Homo sapiens, VCaP, 72 h) it was above 3000 nM; in assay [2] (72 h) it was above 3000 nM; in the assay with T47D cells (Homo sapiens, T47D, 72 h), 1500 to 3000 nM.

As to `Cc1sc2c(c1C)C(c1ccc(O[C@H]3CCC4(CCN(c5ncc(C(=O)N[C@H]6C(C)(C)[C@H](Oc7ccc(C#N)c(Cl)c7)C6(C)C)cn5)CC4)C3)cc1)=N[C@@H](Cc1ncco1)c1nnc(C)n1-2` [Compound I-173], the GI50 in assay [1] (72 h) was above 3000 nM; with VCaP cells (Homo sapiens, VCaP, 72 h), below 500 nM; in assay [2] (72 h) it was below 500 nM; in the assay with T47D cells (Homo sapiens, T47D, 72 h) it was below 500 nM.

For the compound `Cc1sc2c(c1C)C(c1ccc(CC3CCC4(C3)CN(c3ncc(C(=O)N[C@H]5C(C)(C)[C@H](Oc6ccc(C#N)c(Cl)c6)C5(C)C)cn3)CCO4)cc1)=N[C@@H](C)c1nnc(C)n1-2` (stereo partly shown) [Compound I-619], the GI50 in assay [1] (72 h) is 500 to 1500 nM; in the assay on VCaP cells (Homo sapiens, VCaP, 72 h), below 500 nM; in assay [2] (72 h), below 500 nM; with T47D cells (Homo sapiens, T47D, 72 h), below 500 nM.

Consider `Cc1sc2c(c1C)C(c1ccc(NCC3CCN(c4ncc(C(=O)N[C@H]5C(C)(C)[C@H](Oc6ccc(C#N)c(Cl)c6)C5(C)C)cn4)C3)cc1)=NC(Cc1ncco1)c1nnc(C)n1-2` (stereo partly shown) [Compound I-639], for which the GI50 is below 500 nM in assay [1] (72 h); below 500 nM in the assay on VCaP cells (Homo sapiens, VCaP, 72 h); below 500 nM in assay [2] (72 h); below 500 nM in the assay on T47D cells (Homo sapiens, T47D, 72 h).

For `Cc1sc2c(c1C)C(c1ccc(C(=O)N3CCN(CCc4ncc(C(=O)N[C@H]5C(C)(C)[C@H](Oc6ccc(C#N)c(Cl)c6)C5(C)C)cn4)CC3)cc1)=N[C@H](Cc1ncco1)c1nnc(C)n1-2` [Compound I-357], the GI50 in assay [1] (72 h) is above 3000 nM; in the assay on VCaP cells (Homo sapiens, VCaP, 72 h), above 3000 nM; in assay [2] (72 h), 500 to 1500 nM; in the assay on T47D cells (Homo sapiens, T47D, 72 h), 1500 to 3000 nM.

As to `Cc1sc2c(c1C)C(c1ccc([C@@H]3CCCCN3C(=O)[C@H]3CCCN(c4ncc(C(=O)N[C@H]5C(C)(C)[C@@H](Oc6ccc(C#N)c(Cl)c6)C5(C)C)cn4)C3)cc1)=N[C@@H](Cc1ncco1)c1nnc(C)n1-2` [Compound I-360], the GI50 in assay [1] (72 h) is above 3000 nM; with VCaP cells (Homo sapiens, VCaP, 72 h), below 500 nM; in assay [2] (72 h), below 500 nM; with T47D cells (Homo sapiens, T47D, 72 h), above 3000 nM.

On to `Cc1sc2c(c1C)C(c1ccc(CN3CCO[C@@H](CNc4ncc(C(=O)N[C@H]5C(C)(C)[C@H](Oc6ccc(C#N)c(Cl)c6)C5(C)C)cn4)C3)cc1)=N[C@@H](Cc1ncco1)c1nnc(C)n1-2` [Compound I-334], for which the GI50 was below 500 nM in assay [1] (72 h); below 500 nM with VCaP cells (Homo sapiens, VCaP, 72 h); below 500 nM in assay [2] (72 h); below 500 nM in the assay on T47D cells (Homo sapiens, T47D, 72 h).

As to `Cc1sc2c(c1C)C(c1ccc(C3CC(CC4CN(c5ncc(C(=O)N[C@H]6C(C)(C)[C@H](Oc7ccc(C#N)c(Cl)c7)C6(C)C)cn5)C4)C3)cc1)=NC(Cc1ncco1)c1nnc(C)n1-2` (stereo partly shown) [Compound I-477], the GI50 (in assay [1] (72 hours); in the assay with VCaP cells; in assay [2] (72 hours); in the assay on T47D cells) was below 500 nM in each case.

For `Cc1sc2c(c1C)C(c1ccc([C@H]3C[C@H]([C@H]4CCN(c5ncc(C(=O)N[C@H]6C(C)(C)[C@H](Oc7ccc(C#N)c(Cl)c7)C6(C)C)cn5)C4)C3)cc1)=N[C@H](Cc1ncco1)c1nnc(C)n1-2` [Compound I-418], the GI50 was below 500 nM in assay [1] (72 h); below 500 nM with VCaP cells (Homo sapiens, VCaP, 72 h); below 500 nM in assay [2] (72 h); below 500 nM with T47D cells (Homo sapiens, T47D, 72 h).

As for `Cc1sc2c(c1C)C(c1ccc(CN3CC(=O)N4CC(c5ncc(C(=O)N[C@H]6C(C)(C)[C@H](Oc7ccc(C#N)c(Cl)c7)C6(C)C)cn5)C[C@H]4C3=O)cc1)=N[C@@H](Cc1ncco1)c1nnc(C)n1-2` (stereo partly shown) [Compound I-385], the GI50 in assay [1] (72 h) is above 3000 nM; in the assay with VCaP cells (Homo sapiens, VCaP, 72 h) it was 1500 to 3000 nM; in assay [2] (72 h), above 3000 nM; with T47D cells (Homo sapiens, T47D, 72 h), above 3000 nM.

Consider `Cc1sc2c(c1C)C(c1ccc(O[C@H]3CC[C@@]4(CCN(c5ncc(C(=O)N[C@H]6C(C)(C)[C@H](Oc7ccc(C#N)c(Cl)c7)C6(C)C)cn5)C4)CC3)cc1)=N[C@@H](Cc1ncco1)c1nnc(C)n1-2` [Compound I-179], for which the GI50 in assay [1] (72 h) was below 500 nM; in the assay with VCaP cells (Homo sapiens, VCaP, 72 h) it was below 500 nM; in assay [2] (72 h), below 500 nM; in the assay on T47D cells (Homo sapiens, T47D, 72 h), 500 to 1500 nM.

In the case of `Cc1sc2c(c1C)C(c1ccc(N3CC(C4CCCN(c5ncc(C(=O)N[C@H]6C(C)(C)[C@H](Oc7ccc(C#N)c(Cl)c7)C6(C)C)cn5)C4)C3)cc1)=N[C@@H](C)c1nnc(C)n1-2` (stereo partly shown) [Compound I-474], the GI50 in assay [1] (72 hours) is 500 to 1500 nM; in the assay on VCaP cells it was above 3000 nM; in assay [2] (72 hours), below 500 nM; in the assay on T47D cells, below 500 nM.

`Cc1sc2c(c1C)C(c1ccc(C3CN(C4CCN(c5ncc(C(=O)N[C@H]6C(C)(C)[C@H](Oc7ccc(C#N)c(Cl)c7)C6(C)C)cn5)CC4)C3)cc1)=N[C@@H](Cc1ncco1)c1nnc(C)n1-2` [Compound I-247]: the GI50 is below 500 nM in assay [1] (72 h); below 500 nM with VCaP cells (Homo sapiens, VCaP, 72 h); below 500 nM in assay [2] (72 h); below 500 nM in the assay with T47D cells (Homo sapiens, T47D, 72 h).

For the compound `Cc1sc2c(c1C)C(c1ccc(CC3CC4(CCN(c5cnc(C(=O)N[C@H]6C(C)(C)[C@H](Oc7ccc(C#N)c(Cl)c7)C6(C)C)cn5)CC4)C3)cc1)=N[C@@H](C)c1nnc(C)n1-2` [Compound I-448], the GI50 in assay [1] (72 h) is above 3000 nM; with VCaP cells (Homo sapiens, VCaP, 72 h), above 3000 nM; in assay [2] (72 h), below 500 nM; in the assay on T47D cells (Homo sapiens, T47D, 72 h), below 500 nM.

Take `Cc1sc2c(c1C)C(c1ccc(O[C@@H]3COC4(CCN(c5ncc(C(=O)N[C@H]6C(C)(C)[C@H](Oc7ccc(C#N)c(Cl)c7)C6(C)C)cn5)C4)C3)cc1)=N[C@@H](Cc1ncco1)c1nnc(C)n1-2` (stereo partly shown) [Compound I-185]: the GI50 in assay [1] (72 h) was below 500 nM; with VCaP cells (Homo sapiens, VCaP, 72 h), below 500 nM; in assay [2] (72 h), below 500 nM; in the assay on T47D cells (Homo sapiens, T47D, 72 h) it was below 500 nM.

As for `Cc1sc2c(c1C)C(c1ccc(N3CCC4(C3)CN(c3cnc(C(=O)N[C@H]5C(C)(C)[C@H](Oc6ccc(C#N)c(Cl)c6)C5(C)C)cn3)C4)cc1)=N[C@@H](C)c1nnc(C)n1-2` [Compound I-578], the GI50 in assay [1] (72 h) was above 3000 nM; with VCaP cells (Homo sapiens, VCaP, 72 h), below 500 nM; in assay [2] (72 h), above 3000 nM; in the assay with T47D cells (Homo sapiens, T47D, 72 h) it was below 500 nM.

Consider `Cc1sc2c(c1C)C(c1ccc(OC[C@@H]3CCCN(c4ncc(C(=O)N[C@H]5C(C)(C)[C@H](Oc6ccc(C#N)c(Cl)c6)C5(C)C)cn4)C3)cc1)=N[C@@H](C)c1nnc(C)n1-2` [Compound I-352], for which the 50% growth inhibitory concentration (GI50) in assay [1] (72 h) was above 3000 nM; in the assay on VCaP cells (Homo sapiens, VCaP, 72 h) it was below 500 nM; in assay [2] (72 h), below 500 nM; with T47D cells (Homo sapiens, T47D, 72 h), above 3000 nM.
